According to the supplement of paper PMC10307832:

Legend:
Assay in all cases: relative viability (nuclei count vs DMSO), 5 days (fraction); higher = more cells survive
IMD-0354 + Palbociclib = compound: O=C(Nc1cc(C(F)(F)F)cc(C(F)(F)F)c1)c1cc(Cl)ccc1O [IMD-0354] + CC(=O)c1c(C)c2cnc(Nc3ccc(N4CCNCC4)cn3)nc2n(C2CCCC2)c1=O [Palbociclib] (partner 0.5 µM)
Outline: (§1)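 Lung cancer cell lines, seeded in 1536-well plates, were treated the following day by pin tool with a single drug or with five library-drug doses (not always all listed) in √10 steps on top of a fixed anchor-drug dose. Cells were fixed and nuclei stained in one step after 5 days, and nuclei were counted. Relative viability is the nuclei count for treated wells divided by that for vehicle wells, reported as medians of duplicate plates.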

IMD-0354 + Olaparib = compound: O=C(Nc1cc(C(F)(F)F)cc(C(F)(F)F)c1)c1cc(Cl)ccc1O [IMD-0354] + O=C(c1cc(Cc2n[nH]c(=O)c3ccccc23)ccc1F)N1CCN(C(=O)C2CC2)CC1 [Olaparib] (partner 8 µM)
Outline: as §1

CX-5461 + Palbociclib = compound: Cc1cnc(CNC(=O)c2c(=O)c3ccc(N4CCCN(C)CC4)nc3n3c2sc2ccccc23)cn1 [CX-5461] + CC(=O)c1c(C)c2cnc(Nc3ccc(N4CCNCC4)cn3)nc2n(C2CCCC2)c1=O [Palbociclib] (partner 0.5 µM)
Outline: as §1

IMD-0354 + Pictilisib = compound: O=C(Nc1cc(C(F)(F)F)cc(C(F)(F)F)c1)c1cc(Cl)ccc1O [IMD-0354] + CS(=O)(=O)N1CCN(Cc2cc3nc(-c4cccc5[nH]ncc45)nc(N4CCOCC4)c3s2)CC1 [Pictilisib] (partner 1 µM)
Outline: as §1

| Cell Line | relative viability (IMD-0354 + Palbociclib; first compound 0.04 µM) | relative viability (IMD-0354 + Palbociclib; first compound 0.1265 µM) | relative viability (IMD-0354 + Palbociclib; first compound 0.4 µM) | relative viability (IMD-0354 + Palbociclib; first compound 1.265 µM) | relative viability (IMD-0354 + Palbociclib; first compound 4 µM) | relative viability (IMD-0354 + Olaparib; first compound 0.04 µM) | relative viability (IMD-0354 + Olaparib; first compound 0.1265 µM) | relative viability (IMD-0354 + Olaparib; first compound 0.4 µM) | relative viability (IMD-0354 + Olaparib; first compound 1.265 µM) | relative viability (IMD-0354 + Olaparib; first compound 4 µM) | relative viability (CX-5461 + Palbociclib; first compound 0.01 µM) | relative viability (CX-5461 + Palbociclib; first compound 0.03162 µM) | relative viability (CX-5461 + Palbociclib; first compound 0.1 µM) | relative viability (CX-5461 + Palbociclib; first compound 0.3162 µM) | relative viability (CX-5461 + Palbociclib; first compound 1 µM) | relative viability (IMD-0354 + Pictilisib; first compound 0.04 µM) | relative viability (IMD-0354 + Pictilisib; first compound 0.1265 µM) | relative viability (IMD-0354 + Pictilisib; first compound 0.4 µM) | relative viability (IMD-0354 + Pictilisib; first compound 1.265 µM) | relative viability (IMD-0354 + Pictilisib; first compound 4 µM) |
| --- | --- | --- | --- | --- | --- | --- | --- | --- | --- | --- | --- | --- | --- | --- | --- | --- | --- | --- | --- | --- |
| HARA | 0.237 | 0.202 | 0.314 | 0.195 | 0.204 | 0.455 | 0.697 | 0.935 | 0.167 | 0.311 | 0.24 | 0.227 | 0.331 | 0.228 | 0.253 | 0.598 | 0.3 | 0.393 | 0.116 | 0.193 |
| HCC-15 | 0.733 | 0.664 | 0.627 | 0.289 | 0.1 | 0.576 | 0.69 | 0.474 | 0.317 | 0.157 | 0.705 | 0.759 | 0.808 | 0.725 | 0.592 | 0.632 | 0.696 | 0.437 | 0.14 | 0.133 |
| HCC-44 | 1.06 | 0.964 | 0.922 | 0.661 | 0.452 | 0.994 | 1.04 | 0.571 | 0.789 | 0.296 | 0.906 | 1.05 | 0.969 | 0.926 | 0.953 | 0.634 | 0.534 | 0.415 | 0.12 | 0.156 |
| HCC-78 | 0.538 | 0.506 | 0.322 | 0.383 | 0.424 | 0.814 | 0.744 | 0.649 | 1.04 | 0.291 | 0.503 | 0.453 | 0.444 | 0.508 | 0.429 | 0.179 | 0.204 | 0.207 | 0.095 | 0.126 |
| HCC-366 | 0.474 | 0.535 | 0.259 | 0.0918 | 0.0749 | 0.363 | 0.371 | 0.231 | 0.053 | 0.0706 | 0.451 | 0.546 | 0.355 | 0.308 | 0.287 | 0.16 | 0.193 | 0.168 | 0.148 | 0.0681 |
| HCC-827 | 0.514 | 0.491 | 0.407 | 0.36 | 0.222 | 0.55 | 0.614 | 0.482 | 0.372 | 0.21 | 0.452 | 0.529 | 0.538 | 0.437 | 0.582 | 1.03 | 0.795 | 0.691 | 0.66 | 0.337 |
| HOP-62 | 0.454 | 0.39 | 0.299 | 0.266 | 0.0933 | 0.262 | 0.413 | 0.347 | 0.15 | 0.0835 | 0.415 | 0.446 | 0.461 | 0.413 | 0.415 | 0.958 | 0.804 | 0.346 | 0.237 | 0.0877 |
| IA-LM | – | – | – | – | – | 0.829 | 0.729 | 0.521 | 0.161 | 0.133 | – | – | – | – | – | – | 0.377 | 0.216 | 0.0793 | 0.112 |
| LC-2-ad | 0.531 | 0.451 | 0.333 | 0.287 | 0.181 | 0.699 | 0.71 | 0.466 | 0.364 | 0.223 | 0.474 | 0.552 | 0.42 | 0.469 | 0.47 | 0.494 | 0.424 | 0.404 | 0.106 | 0.136 |
| NCI-H522 | 1.14 | 0.87 | 0.881 | 0.994 | 0.458 | 0.517 | 0.716 | 0.625 | 0.46 | 0.333 | 1.04 | 0.957 | 1.18 | – | 0.993 | – | – | – | – | – |
| NCI-H596 | – | – | – | – | – | 0.758 | 0.635 | 0.701 | 0.818 | 0.463 | – | – | – | – | – | 0.383 | 0.381 | 0.375 | 0.372 | 0.34 |
| NCI-H1299 | – | – | – | – | – | 0.767 | 0.969 | 0.505 | 0.193 | 0.16 | – | – | – | – | – | 0.753 | 0.717 | 0.369 | 0.0957 | 0.0657 |
| NCI-H1563 | – | – | – | – | – | – | – | – | – | – | – | – | – | – | – | 0.635 | 0.704 | 0.595 | 0.387 | 0.318 |
| NCI-H1648 | 0.278 | 0.227 | 0.224 | 0.21 | 0.259 | 0.528 | 0.484 | 0.565 | 0.677 | 0.225 | 0.32 | 0.267 | 0.254 | 0.274 | 0.284 | – | – | – | – | – |
| NCI-H1703 | – | – | – | – | – | 0.405 | 0.468 | 0.358 | 0.108 | 0.0868 | – | – | – | – | – | 0.273 | 0.241 | 0.235 | 0.157 | 0.123 |
| NCI-H2342 | 0.491 | 0.511 | 0.499 | 0.538 | 0.438 | 0.432 | 0.478 | 0.356 | 0.38 | 0.432 | 0.513 | 0.505 | 0.486 | 0.531 | 0.522 | – | – | – | – | – |
| SW 900 | 0.517 | 0.629 | 0.478 | 0.187 | 0.248 | 0.928 | 0.948 | 0.66 | 0.212 | 0.258 | 0.533 | 0.538 | – | 0.621 | 0.519 | – | – | – | – | – |
